# Experimental data as given in publication PMC10179080, “In Vivo and In Vitro Characterization of Close Analogs of Compound KA-11, a New Antiseizure Drug Candidate” (International Journal of Molecular Sciences, 2023).
# Marks after values point to notes of the source that are not given here.
# Legend:
# [1] = design: method as in PMID 30247871; conditions: cited from earlier work
# [2] = biological target: T1, TRPV1 (VR1) (antagonist effect) (Homo sapiens, UniProt Q8NER1); experiment: TRPV1 antagonist functional assay (intracellular Ca2+, CHO cells); type: cell-based; conditions: CHO; 100 µM; not published before; read-out: % Inhibition of control specific binding (functional, antagonist effect)
# T1 construct: host or cells: CHO cells
# Procedure: (§1) Binding studies were carried out commercially in Eurofins Laboratories (Poitiers, France or New Taipei City, Taiwan).
# [3] = biological target: GABAA (α1,β2,γ2) (agonist radioligand) (Homo sapiens, UniProt P14867+P47870); design: method as in PMID 30247871; conditions: 100 µM; cited from earlier work
# [4] = tested on: Glutamate (NMDA, nonselective, antagonist radioligand, [3H] Ifenprodil radioligand); design: method as in PMID 30247871; conditions: 100 µM; cited from earlier work
# [5] = tested on: seizure susceptibility in mice; design: method as in PMID 28412310; conditions: 100 mg/kg; cited from earlier work
# [6] = tested on: neuromuscular strength in mice; design: method as in PMID 34074008; conditions: single administration 30 mg/kg; cited from earlier work
# CYP2D6 = biological target: T2, CYP2D6 (Homo sapiens, UniProt P10635); design: method as in PMID 30247871; conditions: cited from earlier work
# T2 construct: purchased Promega, Madison, WI, USA
# hERG potassium channel = biological target: T3, hERG potassium channel (Homo sapiens, UniProt Q12809); experiment: Radioligand binding, potassium channel (hERG); conditions: human, human recombinant HEK-293 cells expressing hERG, KA-11 value not published before, read-out: % Inhibition of Control Specific Binding
# T3 construct: host or cells: HEK-293 cells
# Procedure: Dysfunction of both sodium and calcium ion channels is known to be one of the crucial reasons behind the pathogenesis of seizures. Consequently, these ion channels are molecular targets for several clinically important ASDs such as lacosamide, lamotrigine, carbamazepine, oxcarbazepine and compounds currently under preclinical and clinical studies. Thus, for KA-228 and KA-232, we tested herein their binding profile toward the aforementioned ion channels at concentrations of 10 and 100 µM (Table 3). […] Apart from in vitro studies focused on explaining the mechanism of action, KA-232 was additionally tested for its interaction with the potassium channel (hERG) which is recognized as one of the most important ‘off-targets’ responsible for harmful arrhythmogenic activity. Thus, the interaction of potential drug candidates with hERG must be excluded at an early stage of development.
# as §1
# CYP3A4 = biological target: T4, CYP3A4 (Homo sapiens, UniProt P08684); design: method as in PMID 26052884; conditions: 10 µM; cited from earlier work
# T4 construct: purchased Promega, Madison, WI, USA
# Na^+ channel (site 2) = tested on: Na^+ channel (site 2); design: method as in PMID 26052884; conditions: 100 µM; cited from earlier work
# [7] = tested on: Glutamate (AMPA, nonselective, antagonist radioligand, [3H] AMPA radioligand); design: method as in PMID 30247871; conditions: 100 µM; cited from earlier work
# hepatoma HepG2 = tested on: hepatoma HepG2; design: method as in PMID 30247871; conditions: 10 µM; cited from earlier work
# [8] = tested on: Calcium Cav1.2 channel (verapamil site, antagonist radioligand); design: method as in PMID 30247871; conditions: 100 µM; cited from earlier work
# [9] = tested on: 6-Hz-induced psychomotor seizures in mice; conditions: i.p., cited from earlier work
# [10] = tested on: Calcium Cav1.2 channels (diltiazem site, antagonist radioligand); design: method as in PMID 30247871; conditions: 100 µM; cited from earlier work
# [11] = design: method as in PMID 26052884; conditions: cited from earlier work
# [12] = tested on: Calcium Cav1.2 channels (dihydropyridine site, antagonist radioligand); design: method as in PMID 26052884; conditions: 100 µM; cited from earlier work
# [13] = tested on: PTZ-induced clonic seizures in mice; conditions: i.p., cited from earlier work
# [14] = tested on: motor performance in mice; conditions: i.p.; cited from earlier work
# [15] = biological target: T5, Calcium Cav2.2 channel (antagonist radioligand) (Rattus norvegicus, UniProt Q02294); design: method as in PMID 26052884; conditions: 100 µM; cited from earlier work
# T5 construct: rat cerebral cortex; tissue Eurofins Laboratories; host or cells: rat cerebral cortex
# [16] = tested on: tonic–clonic seizures in mice; conditions: i.p.; cited from earlier work
# T2 sequence (P10635 whole entry): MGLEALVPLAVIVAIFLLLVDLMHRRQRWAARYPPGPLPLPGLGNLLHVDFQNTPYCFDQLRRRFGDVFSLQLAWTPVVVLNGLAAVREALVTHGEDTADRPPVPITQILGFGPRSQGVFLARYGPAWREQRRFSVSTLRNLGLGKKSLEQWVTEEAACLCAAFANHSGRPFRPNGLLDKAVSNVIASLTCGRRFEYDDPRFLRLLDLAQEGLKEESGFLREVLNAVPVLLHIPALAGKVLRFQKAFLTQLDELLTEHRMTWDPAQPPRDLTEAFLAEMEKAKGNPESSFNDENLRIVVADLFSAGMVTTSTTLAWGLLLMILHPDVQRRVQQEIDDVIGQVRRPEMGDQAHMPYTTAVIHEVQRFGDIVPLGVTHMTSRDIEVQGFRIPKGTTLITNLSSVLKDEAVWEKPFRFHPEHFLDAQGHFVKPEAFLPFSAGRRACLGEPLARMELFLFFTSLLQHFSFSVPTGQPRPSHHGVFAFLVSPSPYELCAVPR
# GABAA (α1,β2,γ2) (agonist radioligand), sequence (P14867 28-456): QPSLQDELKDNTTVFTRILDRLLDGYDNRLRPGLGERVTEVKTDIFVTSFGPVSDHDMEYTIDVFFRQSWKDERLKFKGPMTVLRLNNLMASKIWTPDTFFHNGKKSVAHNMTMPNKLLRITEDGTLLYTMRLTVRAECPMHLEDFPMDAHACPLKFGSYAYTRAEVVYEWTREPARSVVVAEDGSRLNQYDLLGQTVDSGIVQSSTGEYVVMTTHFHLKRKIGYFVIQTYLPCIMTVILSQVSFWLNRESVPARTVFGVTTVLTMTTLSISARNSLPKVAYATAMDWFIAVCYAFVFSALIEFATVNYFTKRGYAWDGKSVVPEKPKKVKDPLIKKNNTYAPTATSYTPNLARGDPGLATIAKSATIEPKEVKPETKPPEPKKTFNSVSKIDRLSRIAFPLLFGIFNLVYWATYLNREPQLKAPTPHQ
# GABAA (α1,β2,γ2) (agonist radioligand), sequence (P47870 25-512 limits assumed): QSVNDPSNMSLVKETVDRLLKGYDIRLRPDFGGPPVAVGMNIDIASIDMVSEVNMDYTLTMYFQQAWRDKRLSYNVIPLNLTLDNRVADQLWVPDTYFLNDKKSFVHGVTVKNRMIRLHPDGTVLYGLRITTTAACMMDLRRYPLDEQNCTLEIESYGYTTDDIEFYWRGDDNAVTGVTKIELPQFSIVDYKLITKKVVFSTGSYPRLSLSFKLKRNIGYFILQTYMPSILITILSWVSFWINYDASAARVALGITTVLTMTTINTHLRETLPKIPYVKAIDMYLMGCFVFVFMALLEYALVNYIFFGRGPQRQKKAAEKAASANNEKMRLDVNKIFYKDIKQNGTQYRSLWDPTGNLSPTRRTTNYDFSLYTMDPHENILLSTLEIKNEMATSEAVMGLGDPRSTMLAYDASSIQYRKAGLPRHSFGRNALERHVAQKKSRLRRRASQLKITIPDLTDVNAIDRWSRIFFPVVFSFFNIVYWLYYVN
# GABAA (α1,β2,γ2) (agonist radioligand), sequence (P18507 40-475 partner): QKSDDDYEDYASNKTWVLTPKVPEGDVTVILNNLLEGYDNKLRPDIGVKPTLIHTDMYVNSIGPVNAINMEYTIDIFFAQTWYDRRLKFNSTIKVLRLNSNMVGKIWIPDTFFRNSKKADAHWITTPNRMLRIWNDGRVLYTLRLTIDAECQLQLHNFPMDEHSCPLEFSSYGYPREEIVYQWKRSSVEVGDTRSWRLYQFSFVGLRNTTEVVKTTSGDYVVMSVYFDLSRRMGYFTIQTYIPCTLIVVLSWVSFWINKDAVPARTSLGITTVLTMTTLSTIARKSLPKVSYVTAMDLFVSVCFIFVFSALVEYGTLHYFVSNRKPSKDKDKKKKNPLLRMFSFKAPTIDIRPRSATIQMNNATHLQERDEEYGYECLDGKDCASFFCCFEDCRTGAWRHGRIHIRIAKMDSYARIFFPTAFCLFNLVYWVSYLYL
# T5 sequence (Q02294 whole entry): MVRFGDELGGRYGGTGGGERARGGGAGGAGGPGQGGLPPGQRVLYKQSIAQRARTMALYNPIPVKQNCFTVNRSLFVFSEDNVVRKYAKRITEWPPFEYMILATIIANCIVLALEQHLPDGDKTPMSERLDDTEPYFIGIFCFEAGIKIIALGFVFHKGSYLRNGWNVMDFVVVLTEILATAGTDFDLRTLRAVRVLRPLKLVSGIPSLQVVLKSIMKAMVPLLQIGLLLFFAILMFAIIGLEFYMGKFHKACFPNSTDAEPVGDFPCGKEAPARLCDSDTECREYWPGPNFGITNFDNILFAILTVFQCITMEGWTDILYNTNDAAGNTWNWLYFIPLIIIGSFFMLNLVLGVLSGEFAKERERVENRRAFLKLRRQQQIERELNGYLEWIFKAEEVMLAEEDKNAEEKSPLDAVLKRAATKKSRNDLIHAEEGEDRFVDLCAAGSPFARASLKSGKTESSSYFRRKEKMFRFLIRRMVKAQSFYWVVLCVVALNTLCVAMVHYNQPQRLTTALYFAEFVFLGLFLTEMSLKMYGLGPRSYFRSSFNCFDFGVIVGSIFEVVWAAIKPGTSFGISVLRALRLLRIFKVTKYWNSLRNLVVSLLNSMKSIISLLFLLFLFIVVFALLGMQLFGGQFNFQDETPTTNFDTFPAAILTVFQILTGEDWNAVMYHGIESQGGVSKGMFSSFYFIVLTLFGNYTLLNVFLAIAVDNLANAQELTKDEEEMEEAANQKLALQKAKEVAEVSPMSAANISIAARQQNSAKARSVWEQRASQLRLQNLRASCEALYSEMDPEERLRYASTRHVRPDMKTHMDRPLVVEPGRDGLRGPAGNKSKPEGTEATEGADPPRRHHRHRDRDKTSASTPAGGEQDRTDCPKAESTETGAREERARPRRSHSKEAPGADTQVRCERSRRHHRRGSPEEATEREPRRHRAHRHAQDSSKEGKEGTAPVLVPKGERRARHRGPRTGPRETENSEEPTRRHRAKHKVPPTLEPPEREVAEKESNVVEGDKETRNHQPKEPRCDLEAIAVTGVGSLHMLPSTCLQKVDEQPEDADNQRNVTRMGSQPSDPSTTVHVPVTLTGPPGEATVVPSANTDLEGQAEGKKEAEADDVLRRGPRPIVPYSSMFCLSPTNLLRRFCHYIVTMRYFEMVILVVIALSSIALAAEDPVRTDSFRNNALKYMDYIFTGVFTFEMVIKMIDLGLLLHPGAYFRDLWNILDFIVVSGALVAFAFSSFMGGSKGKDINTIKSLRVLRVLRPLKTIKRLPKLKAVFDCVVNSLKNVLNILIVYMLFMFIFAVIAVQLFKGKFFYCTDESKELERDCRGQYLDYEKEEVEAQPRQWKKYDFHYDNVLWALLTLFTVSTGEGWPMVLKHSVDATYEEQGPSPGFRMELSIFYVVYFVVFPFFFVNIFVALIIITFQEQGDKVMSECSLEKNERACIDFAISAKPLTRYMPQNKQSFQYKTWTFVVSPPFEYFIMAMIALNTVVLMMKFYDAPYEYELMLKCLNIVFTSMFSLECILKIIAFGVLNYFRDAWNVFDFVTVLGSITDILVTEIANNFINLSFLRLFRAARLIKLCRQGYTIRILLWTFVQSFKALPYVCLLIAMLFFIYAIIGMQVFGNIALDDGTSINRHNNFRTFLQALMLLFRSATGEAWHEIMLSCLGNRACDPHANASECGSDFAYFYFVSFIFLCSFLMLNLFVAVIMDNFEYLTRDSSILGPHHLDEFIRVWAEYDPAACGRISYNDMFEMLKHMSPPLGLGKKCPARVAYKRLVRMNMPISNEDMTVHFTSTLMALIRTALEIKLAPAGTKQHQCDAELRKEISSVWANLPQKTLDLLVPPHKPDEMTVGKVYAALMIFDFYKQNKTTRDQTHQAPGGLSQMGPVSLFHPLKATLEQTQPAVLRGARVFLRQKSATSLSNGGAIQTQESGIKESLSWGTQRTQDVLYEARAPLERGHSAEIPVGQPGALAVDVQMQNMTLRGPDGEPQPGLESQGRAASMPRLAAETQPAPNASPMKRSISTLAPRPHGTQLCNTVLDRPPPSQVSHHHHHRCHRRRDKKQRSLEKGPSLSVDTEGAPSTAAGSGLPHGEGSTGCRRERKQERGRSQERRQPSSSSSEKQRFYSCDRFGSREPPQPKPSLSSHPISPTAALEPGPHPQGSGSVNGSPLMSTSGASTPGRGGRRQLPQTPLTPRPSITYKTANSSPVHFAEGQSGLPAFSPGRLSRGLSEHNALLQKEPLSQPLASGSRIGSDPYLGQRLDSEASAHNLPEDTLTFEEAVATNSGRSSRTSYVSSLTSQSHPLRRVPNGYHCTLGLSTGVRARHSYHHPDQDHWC
# T1 sequence (Q8NER1 whole entry): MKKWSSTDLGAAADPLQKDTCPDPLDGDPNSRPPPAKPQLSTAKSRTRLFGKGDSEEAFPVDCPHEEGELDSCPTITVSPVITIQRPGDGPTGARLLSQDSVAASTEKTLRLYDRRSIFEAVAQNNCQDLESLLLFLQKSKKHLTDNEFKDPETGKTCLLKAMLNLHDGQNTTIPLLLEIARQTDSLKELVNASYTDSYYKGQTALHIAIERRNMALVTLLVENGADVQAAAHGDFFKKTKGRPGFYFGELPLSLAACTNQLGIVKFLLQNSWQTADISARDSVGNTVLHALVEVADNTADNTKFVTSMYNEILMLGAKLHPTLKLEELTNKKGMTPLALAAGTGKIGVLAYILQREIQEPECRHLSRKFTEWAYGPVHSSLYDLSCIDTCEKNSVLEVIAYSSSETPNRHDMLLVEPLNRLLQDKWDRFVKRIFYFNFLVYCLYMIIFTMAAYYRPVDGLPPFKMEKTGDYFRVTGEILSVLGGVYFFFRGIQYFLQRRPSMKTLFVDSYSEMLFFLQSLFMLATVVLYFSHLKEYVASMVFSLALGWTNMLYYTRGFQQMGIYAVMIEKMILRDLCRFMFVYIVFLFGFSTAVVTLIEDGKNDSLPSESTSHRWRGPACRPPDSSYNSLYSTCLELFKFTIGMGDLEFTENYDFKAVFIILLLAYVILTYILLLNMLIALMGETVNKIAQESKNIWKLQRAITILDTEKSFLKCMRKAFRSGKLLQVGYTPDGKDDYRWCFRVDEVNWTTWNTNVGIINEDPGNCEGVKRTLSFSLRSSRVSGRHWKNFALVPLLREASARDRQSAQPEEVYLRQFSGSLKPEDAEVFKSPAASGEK
smiles,measurement,setting,value
CC(C(=O)N1CCN(c2cccc(C(F)(F)F)c2)CC1)N1C(=O)CCC1=O (stereo not shown) [KA-11],PAMPA Pe ± SD,[1],27.1 ± 3.8 ^b [9] 10^−6 cm/s
same,inhibition at 100 µM,[2],33%
same,% Inhibition of Control Specific Binding,[3],−28.1 (100) ^# %
same,% Inhibition of Control Specific Binding,[4],13.0 (100) ^# %
same,"effect on thresholds for all studied endpoints (myoclonic twitch, generalized clonus, forelimb tonus)",[5],significant increase
same,effect on muscle strength,[6],no statistically significant abnormalities
same,CYP2D6 activity (% of control ± SD),CYP2D6; 10 µM,122.30 ± 2.02 [9] % of control
same,effect on CYP2D6 activity,CYP2D6; at 1 and 10 µM,slight induction
same,"inhibition at 60 min, 100 µM",hERG potassium channel,15%
same,CYP3A4 activity (% of control ± SD),CYP3A4,99.21 ± 4.9 [6] % of control
same,% Inhibition of Control Specific Binding,Na^+ channel (site 2),37.4 (100) * %
same,% Inhibition of Control Specific Binding,[7],−2.9 (100) ^# %
same,HepG2 viability (% of control ± SD),hepatoma HepG2,99.78 ± 2.18 [9] % of control
same,% Inhibition of Control Specific Binding,[8],1.5 (100) ^# %
same,ED50 6 Hz ± SD,[9]; 32 mA,21.0 ± 32.19 mg/kg
same,"TI (TD50/ED50), 6 Hz",[9],> 71.43
same,% Inhibition of Control Specific Binding,[10],44.9 (100) ^# %
same,Metabolic stability (% remaining after incubation with HLMs),[11],73.49 [6] %
same,% Inhibition of Control Specific Binding,[12],64.2 (100) * %
same,ED50 PTZ ± SD,[13]; scPTZ,59.9 ± 19.55 mg/kg
same,"TI (TD50/ED50), PTZ",[13],> 25.04
same,TD50,[14],>1500 mg/kg
same,% Inhibition of Control Specific Binding,[15],13.9 (100) * %
same,ED50 MES ± SD,[16],88.4 ± 34.16 mg/kg
same,"TI (TD50/ED50), MES",[16],> 16.97
